For data set [1], the system named is T. cruzi (strain Silvio X10/7). More on the design: method as in PMID 30001347. Particulars: 16 days treatment of infected Vero cell monolayers; cited from earlier work.
Data set [2] has as its system T. cruzi (Dm28c-Luc) trypomastigotes. Description: microbe, parasite or virus in culture. The class given is cell-based, Trypanosoma cruzi. The protocol: The screening assays were performed with T. cruzi clone Dm28c (TcI) genetically modified to express luciferase gene (Dm28c-Luc), kindly provided by Dr. Cristina Henriques. Trypomastigotes were isolated from T. cruzi-infected Vero cell monolayers (10:1 parasites/host cell ratio). On the 4th day post-infection (dpi), free trypomastigotes in the culture supernatant were harvested, and the number of parasites/mL was quantified in a Neubauer chamber.
The trypanocidal activity of the pyrazole-thiazoline derivatives was evaluated against trypomastigote and intracellular amastigote forms of T. cruzi (Dm28c-Luc). Tissue-derived trypomastigotes (1 × 10^6 parasites/well) were incubated with pyrazole-thiazoline derivatives and Bz in different concentrations (0.41–100 µM) for 24 h at 37 °C in a humidified atmosphere and 5% CO2. The parasite viability was determined by the addition of luciferin (300 µg/mL), followed by luminescence detection on the GloMax microplate reader (Promega Corporation, Madison, WI, USA).
(§1) After 72 h of treatment, luciferin (300 µg/mL) was added to the culture, and the viability of the parasites was assessed by reading the luminescent signal on the GloMax reader (Promega Corporation, Madison, WI, USA). Controls were also performed in non-toxic concentrations of DMSO (≤ 1%). The concentration that reduces the number of viable parasites by 50% (IC50) or 90% (IC90) was calculated by linear regression. The selectivity index (SI) was calculated as CC50/IC50 for each parasite form.

Data set [3] relates to T. cruzi (Dm28c-Luc) intracellular amastigotes. Description: Trypanocidal activity against intracellular amastigotes in infected Vero cell monolayers. The class given is cell-based, Trypanosoma cruzi. Particulars: for IC90: read-out: Trypanocidal Activity Intracellular Amastigotes IC90. The protocol:
The susceptibility of intracellular amastigotes to pyrazole-thiazoline derivatives (series 1 and 2) was evaluated using 24 h T. cruzi-infected Vero cell monolayers (10:1 parasite/host cell ratio). Then, the cultures were washed with PBS to remove non-internalized parasites, and 200 μL of fresh medium with a serial dilution of pyrazole-thiazoline derivatives and Bz (0.41–100 µM) was added for 72 h at 37 °C.
as §1

Data set [4] in a line: Cytotoxicity in vitro assay (CellTiter-Glo). Conditions: African green monkey, Vero cells, mean ± SD. The class given is cell-based. As to the method: (§2) Vero cells, obtained from the Rio de Janeiro Cell Bank (BCRJ code 0245), were dissociated with trypsin–EDTA solution (0.025%), and maintained in RPMI 1640 medium supplemented with 10% fetal bovine serum (FBS) at 37 °C in a humidified atmosphere of 5% CO2.
(§3) The compound toxicity was evaluated in Vero cell cultures. Briefly, Vero cells were seeded in 96-well white culture plates at a density of 1.5 × 10^4 cells/well for 24 h at 37 °C and 5% CO2. Thereafter, the cell monolayers were washed with phosphate-buffered saline (PBS) and 200 μL of fresh medium with a serial dilution of the pyrazole-thiazoline derivatives and Bz (1.9–500 µM) added. The cell viability was determined by luminescent assay using the CellTiter-Glo Kit (Promega Corporation, Madison, WI, USA) based on the ATP level. After 72 h of treatment, 20 μL of CellTiter-Glo solution was added per well, and cultures were kept for 2 min under agitation. The luminescent signal was read on the GloMax reader (Promega Corporation, Madison, WI, USA). The concentration of compounds that reduced 50% of cell viability (CC50) was calculated by linear regression. At least three independent assays were performed in duplicate.

The test system of data set [5] is Vero cells. The experiment in a line: Cytotoxicity in vitro assay (CellTiter-Glo). The class given is cell-based. Conditions: 72 h, mean ± SD. As to the method:
as §2, §3

Data set [6] concerns T. cruzi (Dm28c-Luc)-infected Vero cell spheroids. The experiment in a line: 3D culture model: T. cruzi-infected Vero cell spheroids. The class given is cell-based, Trypanosoma cruzi. Conditions: for parasite load, arbitrary luminescence unit (ALU): untreated ALU = 166,678 ± 22,824; for DAPI staining fluorescence microscopy of infected microtissue: 100 μM. The protocol: Tridimensional Vero cell cultures were obtained as previously described. Briefly, the isolated cells (2 × 10^4/well) were cultured in 96-well U-bottom plates previously coated with 1% agarose. The spheroids were kept for 5 days at 37 °C in RPMI 1640 medium supplemented with 10% FBS for complete three-dimensional organization. Both 2D and 3D culture models were used for trypanocidal activity assays.
Vero cell spheroids were infected for 24 h with 2 × 10^5 trypomastigotes (Dm28c-Luc). […] Parasite load was assessed by the luminescence reaction after adding the luciferase substrate (luciferin 300 µg/mL). In addition, fluorescence microscopy images of untreated and treated T. cruzi-infected spheroids were acquired after fixing the cultures with 4% paraformaldehyde in PBS and 4′,6-diamidino-2-phenylindole (DAPI) staining, a DNA dye. The samples were observed under the Zeiss Axio Imager M2 fluorescence microscope (Carl Zeiss, Baden-Württemberg, Germany).

Data set [7] concerns T. cruzi Dm28c-Luc in Vero cell cultures. The experiment in a line: Reversibility (washout) assay. The class given is cell-based, Trypanosoma cruzi. Particulars: 72 h treatment then 72 h drug-free. As to the method: Then, the cultures were washed with PBS, and maintained for another 72 h at 37 °C in a drug-free medium. Trypomastigotes released in the culture supernatant were detected by transferring the culture medium to 96-well plates, followed by luciferin (300 µg/mL) addition. Viable intracellular amastigotes were also accessed by adding luciferin solution to the cell monolayers.

Data set [8] relates to T. cruzi cysteine proteases (trypomastigote protein extract). The experiment in a line: Proteinase activity in solution (Z-FR-AMC). The class given is biochemical, Trypanosoma cruzi. Conditions: up to 100 µM, Z-FR-AMC substrate. As to the method:
Trypomastigote protein extracts (Dm28c-Luc; 10^8 parasites/mL) were obtained as previously described. The cysteine protease activity of the total protein extracts (5 µg) was measured using the reaction buffer (CH3COONa 10 mM, pH 5.0 containing 1 mM DTT), in the presence of the fluorogenic peptide substrate […], CBZ-L-Phenylalanyl-l-Arginine amide (Z -FR-AMC), and serial dilutions of pyrazole-thiazolines derivatives (100–6.25 µM). The samples were incubated for 45 min at room temperature. The variation in arbitrary fluorescence units (AFU), corresponding to the enzymatic cleavage of the fluorogenic substrate, was monitored in a SpectraMax M2e reader (Molecular Devices, Sunnyvale, CA, USA) for 1 h, with excitation values at 370 nm and emission values at 460 nm. Extracts incubated with 0.5% DMSO or with cysteine protease inhibitor E-64 were used as […]. […] The inhibitory activity was expressed as percentage inhibition.

Setting [9] is: Trypanosoma cruzi; Dm28c-Luc, 24 h, mean ± SD; read-out: Trypanocidal Activity Trypomastigotes IC90.
The mark [10] stands for this setting: Trypanosoma cruzi, Dm28c-Luc in Vero cells, 72 h, mean ± SD.
Setting [11] is: selectivity index vs Vero cells.
[12] abbreviates: 72 h, concentration higher than IC90 (100 μM in Figure 6 legend).

Like-named read-outs stand apart in the source and are kept apart here.

Usually IC90 stands for the point of the concentration-response curve where the effect stands at 90%. As a reminder, the CC50 is the concentration at which the toxic effect on the cells reaches its halfway point. In general, inhibition refers to the share of the control response that was lost under treatment.

As to `CC[C@@H]([C@H](C)O)n1ncn(-c2ccc(N3CCN(c4ccc(OC[C@@H]5CO[C@@](Cn6cncn6)(c6ccc(F)cc6F)C5)cc4)CC3)cc2)c1=O` [posaconazole], the “parasite relapse / clearance after prolonged treatment” value in data set [1] is recorded as “unable to achieve parasite clearance”.

Take `Clc1ccc(-n2cc(C3=NCCS3)cn2)c(Cl)c1` [Compound 2c, 2-(1-(2,4-dichlorophenyl)-1H-pyrazol-4-yl)-4,5-dihydrothiazole]: the IC90 amounted to 2.8 ± 0.6 µM in data set [2] (setting [9]) and 16.9 ± 2.5 µM in data set [3] (setting [10]). The CC50 at 72 h in data set [4] is > 100 µM. The compound also had a CC50 in data set [5] of 107 ± 11.4 µM. Also, the “parasite load, arbitrary luminescence unit (ALU)” value (“parasite load” below) in data set [6] (25 µM, 72 h) turned out to be 3329 ± 250 ALU; in data set [6] (50 µM, 72 h), 1648 ± 343 ALU. Also, the “inhibition compared to untreated T. cruzi-infected microtissue” value in data set [6] (25 and 50 µM, 72 h) was “approximately 98%”. Also, the “reduction of release of trypomastigotes in the culture supernatant after washout” value in data set [7] (50 µM) worked out at 85%. Also, the inhibition at 50 µM in data set [7] (Trypanosoma cruzi, Vero, 50 µM, read-out: inhibition of cell monolayer infection (intracellular amastigotes) after washout) was found to be 78%. Also, the “maximum inhibition of cysteine protease activity” value in data set [8] is reported as ≤ 10%.

For the compound `Brc1ccc(-n2cc(C3=NCCS3)cn2)cc1` [Compound 2i, 2-(1-(4-bromophenyl)-1H-pyrazol-4-yl)-4,5-dihydrothiazole], the IC50 in data set [2] (Dm28c-Luc, 24 h, mean ± SD; read-out: Trypanocidal Activity Trypomastigotes IC50) was 2.1 ± 0.9 µM; in data set [2] (Trypanosoma cruzi, 24 h, Dm28c-Luc, 24 h, mean ± SD; read-out: Trypanocidal Activity Trypomastigotes IC50), ≤ 2.1 µM; in data set [3] (Dm28c-Luc in Vero cells, 72 h, mean ± SD, read-out: Trypanocidal Activity Intracellular Amastigotes IC50) it was 6.8 ± 1.1 µM; in data set [3] (Trypanosoma cruzi, Vero, 72 h, Dm28c-Luc in Vero cells, 72 h, mean ± SD, read-out: Trypanocidal Activity Intracellular Amastigotes IC50) it was < 10 µM; in data set [3] (Trypanosoma cruzi, Vero, pIC50 = −log IC50, Dm28c-Luc clone, read-out: Intracellular Amastigotes pIC50 (converted)), < 6.92 µM. Further, the IC90 amounted to 13.3 ± 2.8 µM in data set [2] (setting [9]) and 27.1 ± 3.6 µM in data set [3] (setting [10]). Further, the “Intracellular Amastigotes SI (CC50 of Vero cells/IC50)” value in data set [3] (setting [11]) came to 31.8. Moreover, the “DAPI staining fluorescence microscopy of infected microtissue” value in data set [6] is “reduction in parasite load”. The “parasite load” value in data set [6] (setting [12]) is 25,788 ± 2776 ALU. For the same compound, the inhibition at 100 µM in data set [7] (Trypanosoma cruzi, Vero, 100 µM, read-out: inhibition of cell monolayer infection (intracellular amastigotes) after washout) was 89%. The “maximum inhibition of cysteine protease activity” value in data set [8] is reported as ≤ 10%.

Consider `O=C(Cn1ccnc1[N+](=O)[O-])NCc1ccccc1` [Bz, benznidazole, reference compound], for which the IC50 is 19.6 ± 2.3 µM in data set [2] (Trypanosoma cruzi; Dm28c-Luc, 24 h, mean ± SD; read-out: Trypanocidal Activity Trypomastigotes IC50); 3.3 ± 1.1 µM in data set [3] (Trypanosoma cruzi, Vero, 72 h, read-out: Trypanocidal Activity Intracellular Amastigotes IC50); 3.31 µM in data set [3] (Trypanosoma cruzi, Vero, read-out: Intracellular Amastigotes pIC50 (converted)). The IC90 in data set [2] (setting [9]) was found to be 95.9 ± 4.7 µM; in data set [3] (Trypanosoma cruzi, Vero, 72 h), 13.7 ± 4.2 µM. Also, the “Trypomastigotes SI (CC50 of Vero cells/IC50)” value in data set [2] (setting [11]) is >18.9. For the same compound, in data set [4], the half-maximal cytotoxic concentration (CC50) at 72 h was > 500 µM. Moreover, the “DAPI staining fluorescence microscopy of infected microtissue” value in data set [6] is on record as “drastic reduction in the infection profile”. Besides, the “parasite load” value in data set [6] (setting [12]) is 20,024 ± 2796 ALU. For the same compound, the “parasite clearance in supernatant and cell monolayers after washout” value in data set [7] (100 µM) is “sustained the parasite clearance”. Moreover, in data set [1], the “parasite relapse / clearance after prolonged treatment” value is reported as “prevention of spontaneous parasite relapse for up to 60 days”.

Source of the values: paper PMC9146228, “Bioactivity of Novel Pyrazole-Thiazolines Scaffolds against Trypanosoma cruzi: Computational Approaches and 3D Spheroid Model on Drug Discovery for Chagas Disease” (Pharmaceutics, 2022).
